PMC9482650, “Quantitative fragmentomics allow affinity mapping of interactomes” (Nature Communications, 2022)
Ends that are not written are not given here. * marks the point of attachment. Biotin = O=C1N[C@H]2[C@H](CS[C@H]2CCCCC(=O)*)N1; ttds = NCCCOCCOCCOCCCNC(=O)CCC(=O)*

Experiments:
[1] = test system: HaCat cell extract preys; test: PBM-AP-MS, PBM peptide baits; type: binding, human
Protocol: (§1) HEK293T and HeLa cells were authenticated and found 100% identity to ATCC cat. CRL-3216 and ATCC cat. CCL-2, respectively. Jurkat and HaCat cell lines were not authenticated (original source: ECACC and Deutsches Krebsforschungszentrum DKFZ, respectively). HeLa cells were grown in DMEM (1 g/L glucose, Gibco) medium completed with 5% FCS and 40 μg/mL gentamicin, diluted every 3rd/4th day 1/10. HaCat cells were grown in DMEM (1 g/L glucose, Gibco) medium completed with 10% FCS and 40 μg/mL gentamicin, diluted every 3rd/4th day 1/4. Jurkat cells were grown in RPMI (Gibco) medium completed with 10% FCS and 40 μg/mL gentamicin, diluted every 3rd/4th day 1/12. All cells were kept at 37 °C and 5% CO2. For proteomics analyses cells were seeded on T-175 flasks. After they reached confluency, adherent cells were washed with PBS once and collected by scraping with ice-cold lysis buffer (Hepes-KOH pH 7.5 50 mM, NaCl 150 mM, Triton X-100 1%, complete EDTA-free protease inhibitor cocktail 1×, EDTA 2 mM, TCEP 5 mM, glycerol 10%). Jurkat cells were collected by 1000 g × centrifugation, washed once with PBS, then collected by 1000 g × 5 min centrifugation again and lysed in ice-cold lysis buffer. Lysates were sonicated 4 × 20 s with 1 s long pulses on ice, then incubated rotating at 4 °C for 30 min. Lysates were centrifuged at 12,000 rpm 4 °C for 20 min and supernatant was kept for further analysis. Concentration determination was carried out by standard Bradford method (Bio-Rad Protein Assay Dye Reagent #5000006) using BSA (MP BIomedicals #160069) as control on a Bio-Rad SmartSpec 3000 spectrophotometer instrument.
(§2) For PBM-AP-MS experiments, 30 μl streptavidin resin was mixed with biotin or peptide at 50–60 μM concentration in 6–6.5 resin volume for 60 min to achieve resin saturation. For PDZ-AP-MS experiments, 30 μl streptavidin resin was mixed with biotinylated MBP or MBP-PDZ at 40-50 μM concentration in >1000× resin volume for 60 min to achieve resin saturation. After saturation, resins were washed a single time (ten resin volume, holdup buffer), and were depleted with biotin (1 mM biotin, 5–10 resin volume, 10 min). Finally, resins were washed two times. 0.5 ml 2 mg/ml cell lysate was added to the dry resin (1 mg total input) and were incubated at 4 °C for 2 h. Then, the beads were washed three times with 10 resin volume buffer containing: 50 mM TRIS pH 8.5, 150 mM NaCl, 1% TritonX-100, 10× complete EDTA-free protease inhibitor cocktail, 2 mM EDTA, 1 mM TCEP. Then, the beads were washed two times with ten resin volume buffer containing: 50 mM TRIS pH 8.5, 150 mM NaCl, 1 mM TCEP. Finally, captured protein was eluted from the resin in two steps and the eluted fractions were pooled. For each elution the beads were incubated for 30 min with three resin volume buffer containing: 20 mM TRIS pH8.5, 100 mM NaCl, 500 μM TCEP, 8 M Urea. Between each step, the beads were separated by mild centrifugation and the supernatant was removed by gentle pipetting.
(§3) The samples were precipitated with TCA 20% overnight at 4 °C and centrifuged at 14,000 rpm for 10 min at 4 °C. The protein pellets were washed twice with 1 mL cold acetone and air dried. The protein extracts were solubilized in urea 8 M, reduced with 5 mM TCEP for 30 min, and alkylated with 10 mM iodoacetamide for 30 min in the dark. Double digestion was performed at 37 °C with 500 ng endoproteinase Lys-C for 4 h, followed by fourfold dilution and an overnight digestion with 500 ng trypsin. Peptide mixtures were then desalted on C18 spin-column and dried on Speed-Vacuum.
(§4) Samples were analyzed using an Ultimate 3000 nano-RSLC (Thermo Scientific, San Jose California) coupled in line with a LTQ-Orbitrap ELITE mass spectrometer via a nano-electrospray ionization source (Thermo Scientific, San Jose California). […]

[2] = test system: HeLa cell extract preys; test: PBM-AP-MS, PBM peptide baits; type: binding, human
Protocol: as §1, §2, §3, §4

Substance: HPV18E6
- Enrichment values compared to biotin controls ([1]; prey AHNAK2, PBM peptide bait): 0.8
- Enrichment values compared to biotin controls ([1]; prey AHNAK, PBM peptide bait): 1.4
- Enrichment values compared to biotin controls ([1]; prey DLG1, PBM peptide bait): 2.3
- Enrichment values compared to biotin controls ([1]; prey GORASP2, PBM peptide bait): 9.0
- Enrichment values compared to biotin controls ([1]; prey InaDl, PBM peptide bait): 8.0
- Enrichment values compared to biotin controls ([1]; prey LAP2, PBM peptide bait): 0.9
- Enrichment values compared to biotin controls ([1]; prey LIN7C, PBM peptide bait): 215.4
- Enrichment values compared to biotin controls ([1]; prey MAGI3, PBM peptide bait): 7.4
- Enrichment values compared to biotin controls ([1]; prey MPP5, PBM peptide bait): 11.3
- Enrichment values compared to biotin controls ([1]; prey MPP6, PBM peptide bait): 5.0
- Enrichment values compared to biotin controls ([1]; prey MPP7, PBM peptide bait): 48.3
- Enrichment values compared to biotin controls ([1]; prey NHERF2, PBM peptide bait): 1.8
- Enrichment values compared to biotin controls ([1]; prey NHERF, PBM peptide bait): 2.5
- Enrichment values compared to biotin controls ([1]; prey PDLIM1, PBM peptide bait): 3.2
- Enrichment values compared to biotin controls ([1]; prey PDLIM2, PBM peptide bait): 0.8
- Enrichment values compared to biotin controls ([1]; prey PDLIM4, PBM peptide bait): 1.0
- Enrichment values compared to biotin controls ([1]; prey PDLIM5, PBM peptide bait): 0.7
- Enrichment values compared to biotin controls ([1]; prey PDLIM7, PBM peptide bait): 0.5
- Enrichment values compared to biotin controls ([1]; prey PTPN3, PBM peptide bait): 1.7
- Enrichment values compared to biotin controls ([1]; prey SCRIB, PBM peptide bait): 0.6
- Enrichment values compared to biotin controls ([1]; prey SNTB2, PBM peptide bait): 15.4
- Enrichment values compared to biotin controls ([1]; prey SNX27, PBM peptide bait): 0.641
- Enrichment values compared to biotin controls ([1]; prey SYNJ2BP, PBM peptide bait): 58.4
- Enrichment values compared to biotin controls ([1]; prey TJP1, PBM peptide bait): 8.8
- Enrichment values compared to biotin controls ([1]; prey TJP2, PBM peptide bait): 1.8
- Enrichment values compared to biotin controls ([1]; prey TX1B3, PBM peptide bait): 1.6
- Enrichment values compared to biotin controls ([2]; prey AHNAK, PBM peptide bait): 0.9
- Enrichment values compared to biotin controls ([2]; prey ARHGAP21, PBM peptide bait): 1.1
- Enrichment values compared to biotin controls ([2]; prey ARHGEF12, PBM peptide bait): 1.0
- Enrichment values compared to biotin controls ([2]; prey CASK, PBM peptide bait): 5.3
- Enrichment values compared to biotin controls ([2]; prey DLG1, PBM peptide bait): 6.5
- Enrichment values compared to biotin controls ([2]; prey DLG3, PBM peptide bait): 5.8
- Enrichment values compared to biotin controls ([2]; prey DLG5, PBM peptide bait): 1.4
- Enrichment values compared to biotin controls ([2]; prey DVL2, PBM peptide bait): 1.0
- Enrichment values compared to biotin controls ([2]; prey GOPC, PBM peptide bait): 2.8
- Enrichment values compared to biotin controls ([2]; prey HTRA1, PBM peptide bait): 2.4
- Enrichment values compared to biotin controls ([2]; prey InaDl, PBM peptide bait): 3.6
- Enrichment values compared to biotin controls ([2]; prey LAP2, PBM peptide bait): 1.8
- Enrichment values compared to biotin controls ([2]; prey LIN7C, PBM peptide bait): 285.6
- Enrichment values compared to biotin controls ([2]; prey LMO7, PBM peptide bait): 1.9
- Enrichment values compared to biotin controls ([2]; prey MPDZ, PBM peptide bait): 3.2
- Enrichment values compared to biotin controls ([2]; prey MPP5, PBM peptide bait): 60.3
- Enrichment values compared to biotin controls ([2]; prey MPP6, PBM peptide bait): 3.7
- Enrichment values compared to biotin controls ([2]; prey MPP7, PBM peptide bait): 14.5
- Enrichment values compared to biotin controls ([2]; prey NHERF2, PBM peptide bait): 0.843
- Enrichment values compared to biotin controls ([2]; prey NHERF3, PBM peptide bait): 0.8
- Enrichment values compared to biotin controls ([2]; prey PDLIM5, PBM peptide bait): 0.9
- Enrichment values compared to biotin controls ([2]; prey PDLIM7, PBM peptide bait): 0.8
- Enrichment values compared to biotin controls ([2]; prey PSMD9, PBM peptide bait): 0.8
- Enrichment values compared to biotin controls ([2]; prey SCRIB, PBM peptide bait): 215.8
- Enrichment values compared to biotin controls ([2]; prey SIPA1L1, PBM peptide bait): 0.9
- Enrichment values compared to biotin controls ([2]; prey SNTA1, PBM peptide bait): 1.2
- Enrichment values compared to biotin controls ([2]; prey SNTB1, PBM peptide bait): 18.1
- Enrichment values compared to biotin controls ([2]; prey SNTB2, PBM peptide bait): 76.9
- Enrichment values compared to biotin controls ([2]; prey SNX27, PBM peptide bait): 12.8
- Enrichment values compared to biotin controls ([2]; prey SYNJ2BP, PBM peptide bait): 49.1
- Enrichment values compared to biotin controls ([2]; prey TJP1, PBM peptide bait): 1.7
- Enrichment values compared to biotin controls ([2]; prey TX1B3, PBM peptide bait): 30.0

Substance: HPV30E6 ({Biotin-ttds}-RHTTSTETAV)
- Enrichment values compared to biotin controls ([1]; prey AHNAK2, PBM peptide bait): 1.2
- Enrichment values compared to biotin controls ([1]; prey AHNAK, PBM peptide bait): 1.4
- Enrichment values compared to biotin controls ([1]; prey DLG1, PBM peptide bait): 3.4
- Enrichment values compared to biotin controls ([1]; prey GORASP2, PBM peptide bait): 0.566
- Enrichment values compared to biotin controls ([1]; prey InaDl, PBM peptide bait): 0.8
- Enrichment values compared to biotin controls ([1]; prey LAP2, PBM peptide bait): 1.6
- Enrichment values compared to biotin controls ([1]; prey LIN7C, PBM peptide bait): 207.8
- Enrichment values compared to biotin controls ([1]; prey MAGI3, PBM peptide bait): 2.1
- Enrichment values compared to biotin controls ([1]; prey MPP5, PBM peptide bait): 1.9
- Enrichment values compared to biotin controls ([1]; prey MPP6, PBM peptide bait): 1.8
- Enrichment values compared to biotin controls ([1]; prey MPP7, PBM peptide bait): 42.8
- Enrichment values compared to biotin controls ([1]; prey NHERF2, PBM peptide bait): 1.1
- Enrichment values compared to biotin controls ([1]; prey NHERF, PBM peptide bait): 2.3
- Enrichment values compared to biotin controls ([1]; prey PDLIM1, PBM peptide bait): 2.3
- Enrichment values compared to biotin controls ([1]; prey PDLIM2, PBM peptide bait): 1.2
- Enrichment values compared to biotin controls ([1]; prey PDLIM4, PBM peptide bait): 1.3
- Enrichment values compared to biotin controls ([1]; prey PDLIM5, PBM peptide bait): 0.9
- Enrichment values compared to biotin controls ([1]; prey PDLIM7, PBM peptide bait): 0.658
- Enrichment values compared to biotin controls ([1]; prey PTPN3, PBM peptide bait): 1.3
- Enrichment values compared to biotin controls ([1]; prey SCRIB, PBM peptide bait): 0.8
- Enrichment values compared to biotin controls ([1]; prey SNTB2, PBM peptide bait): 9.0
- Enrichment values compared to biotin controls ([1]; prey SNX27, PBM peptide bait): 0.9
- Enrichment values compared to biotin controls ([1]; prey SYNJ2BP, PBM peptide bait): 21.9
- Fold changes HaCat, SYNJ2BP ([1]; prey SYNJ2BP, PBM peptide bait): 21.9
- Enrichment values compared to biotin controls ([1]; prey TJP1, PBM peptide bait): 3.8
- Enrichment values compared to biotin controls ([1]; prey TJP2, PBM peptide bait): 0.9
- Enrichment values compared to biotin controls ([1]; prey TX1B3, PBM peptide bait): 0.9
- Enrichment values compared to biotin controls ([2]; prey AHNAK, PBM peptide bait): 1.1
- Enrichment values compared to biotin controls ([2]; prey CASK, PBM peptide bait): 20.8
- Enrichment values compared to biotin controls ([2]; prey DLG1, PBM peptide bait): 6.0
- Enrichment values compared to biotin controls ([2]; prey DLG5, PBM peptide bait): 0.7
- Enrichment values compared to biotin controls ([2]; prey DVL2, PBM peptide bait): 0.7
- Enrichment values compared to biotin controls ([2]; prey HTRA1, PBM peptide bait): 1.3
- Enrichment values compared to biotin controls ([2]; prey InaDl, PBM peptide bait): 0.8
- Enrichment values compared to biotin controls ([2]; prey LAP2, PBM peptide bait): 1.5
- Enrichment values compared to biotin controls ([2]; prey LIN7C, PBM peptide bait): 110.0
- Enrichment values compared to biotin controls ([2]; prey LMO7, PBM peptide bait): 0.8
- Enrichment values compared to biotin controls ([2]; prey LNX2, PBM peptide bait): 1.0
- Enrichment values compared to biotin controls ([2]; prey MPDZ, PBM peptide bait): 1.6
- Enrichment values compared to biotin controls ([2]; prey MPP5, PBM peptide bait): 4.5
- Enrichment values compared to biotin controls ([2]; prey MPP7, PBM peptide bait): 9.1
- Enrichment values compared to biotin controls ([2]; prey PDLIM5, PBM peptide bait): 0.9
- Enrichment values compared to biotin controls ([2]; prey PDLIM7, PBM peptide bait): 0.9
- Enrichment values compared to biotin controls ([2]; prey PSMD9, PBM peptide bait): 0.7
- Enrichment values compared to biotin controls ([2]; prey SCRIB, PBM peptide bait): 155.6
- Enrichment values compared to biotin controls ([2]; prey SDCBP, PBM peptide bait): 1.3
- Enrichment values compared to biotin controls ([2]; prey SIPA1L1, PBM peptide bait): 0.5
- Enrichment values compared to biotin controls ([2]; prey SNTB1, PBM peptide bait): 6.5
- Enrichment values compared to biotin controls ([2]; prey SNTB2, PBM peptide bait): 1.1
- Enrichment values compared to biotin controls ([2]; prey SNX27, PBM peptide bait): 1.4
- Enrichment values compared to biotin controls ([2]; prey SYNJ2BP, PBM peptide bait): 15.4
- Fold changes HeLa, SYNJ2BP ([2]; prey SYNJ2BP, PBM peptide bait): 15.4
- Enrichment values compared to biotin controls ([2]; prey TJP1, PBM peptide bait): 0.7
